Tests used:
Format in all cases: cell-based
Settings in all cases: tested after one week washing, 24 hours incubation, Example 2 stock diluted 1:1 with tap water
[1] = system: Staphylococcus aureus (MRSA); assay: ISO 20645/20743 challenge test in accordance with EN 13697 on a steel plate
E. coli = assay: Challenge test on a steel plate (EN 13697)
Protocol: The test was performed after one week washing the steel plate with the composition.

PS. aerug. = assay: Challenge test on a steel plate (EN 13697)
C. albicans = assay: Challenge test on a steel plate (EN 13697)
Enteroc. = assay: Challenge test on a steel plate (EN 13697)
A. niger = assay: Challenge test on a steel plate (EN 13697)

CCO [70% ethanol, ethanol]
log 1: Reduction in growth of microorganisms, MRSA (Staphylococcus aureus) [1] | Reduction in growth of microorganisms, E. coli (E. coli) | Reduction in growth of microorganisms, PS. aerug. (PS. aerug.) | Reduction in growth of microorganisms, C. albicans (C. albicans) | Reduction in growth of microorganisms, Enteroc. (Enteroc.) | Reduction in growth of microorganisms, A. niger (A. niger)

Source: patent publication US20140234455A1, “ANTIMICROBIAL COMPOSITION, METHOD FOR ITS PREPARATION AND ITS USE” (PATOLAB OY, priority 2011, published 2014)
